Values joined by “and” are separate entries in the source; they are usually repeats but may differ in a detail not shown here. Equal values may be shown once.
Assays:
AMP deaminase = AMP deaminase inhibition (14C-AMP to 14C-IMP conversion, lymphoblast lysate); type: biochemical, human; conditions: 200 μM of each ribotide
ischemic myocardium [1] = assay: Venous inosine levels during coronary artery occlusion in dogs; type: in vivo, dog; conditions: over the 60-minute assay period
Protocol: (§1) Thirteen mongrel dogs were anesthetized with phenobarbital. […] C.V. Dis. 20; 55 (1977). […] Two of the surviving saline-treated animals fibrillated. […] The range was 4.4 to 100 μM.
That the increase in the levels of adenosine is due, at least in part, to a reduction in the amount of ATP that is converted to inosine was shown by analysis of venous blood from dogs in Example III for inosine levels.

[2] = tested on: Mouse bone marrow-derived mast cells; assay: Mast cell leukotriene C4 release (radioimmune assay); type: cell-based; conditions: 100 μM for six days, challenged 20 minutes with A23187; control 51
Protocol: (§2) By preventing mast cell degranulation, it is possible to prevent or control a patient's allergic response. Bone marrow obtained from Balb/C mice femurs was cultured in a 1:1 mixture of Razin media and conditioned media, produced by co-culturing splenocytes from C57B1/6J and C3H mice in the present of Concanavalin A as described by Razin et al. in the Proc. Natl. Acad. Sci. USA 28: 2559-2561, 1981. After weekly passaging and at least 15 days in tissue culture, the resulting cells were 90% pure mast cells and 95% viable as assessed by Trypan blue exclusion. Cells exposed to ribavirin in culture were washed three times prior to use in experiments. Parallel cultures of cells grown in media alone were used as controls for pharmacologically manipulated mast cells. Cell growth was assessed by counting cells at particular time pints and comparing actual numbers of ribavirin-treated cells to numbers of cells grown in media alone.

[3] = tested on: pentylene tetrazol-induced seizures; assay: Pentylene tetrazol-induced seizures in the rat; type: in vivo; conditions: 2000 mg/kg (total dose) intraperitoneal
[4] = tested on: human splenic lymphoblast cell line (WI-L2); assay: Adenosine release by WI-L2 lymphoblasts during ATP breakdown (2-deoxyglucose); type: cell-based
Protocol: The history and properties of the cell line have been described by Hershfield et al. in Science, Vol. 197, p. 1284, 1977.
Catabolism of cellular ATP stores was stimulated by adding either 2-deoxyglucose or a calcium ionophore. At various times, the amount of adenosine released by the cells into the supernatant, or the amount of nucleotides remaining in the cells, was determined by mixing 3 μl of chilled 4.4N perchloric acid with 300 μl of supernatants, or by adding 300 μl of chilled 0.4N perchloric acid to the cell collected as pellets and centrifuging the mixtures at 500×G for 10 minutes at 4° C. […] 1245, 1975. Following centrifugation at 1500×G for three minutes at 4° C., the aqueous phase is removed and frozen at -20° C. until assayed for adenosine, inosine, or for nucleotides. Adenosine was evaluated isocratically on a C-18 microBondapak reverse phase column equilibrated with 4 millimolar potassium phosphate, (pH 3.4):acetonitrile 60% in water (95:5 v/v) buffer. Adenosine elutes at 8-10 minutes, and its identity was confirmed by its sensitivity to adenosine deaminase and by spiking with adenosine standards. The extracted samples from the cell pellet were analyzed for nucleotides by high pressure liquid chromatography on a Whatman Partisil-10 (SAX) column equilibrated with 10 millimolar potassium phosphate, pH 3.78, and eluted with a linear gradient to a 0.25 molar potassium phosphate, 0.5 molar KCl, pH 3.45. […] Peaks were quantitated by comparison with high pressure liquid chromatography analysis of suitable standards.
Cells were grown to about 0.5×10^6 cells/ml (mid-log phase) in FIG. 2 and to about 1.0×10^6 cells/ml (early stationary phase) in FIGS. 7-9.

[5] = tested on: HPRT+ neuroblastoma cells; assay: Adenosine excretion by stimulated HPRT+ neuroblastoma cells (calcium ionophore A23187); type: cell-based
Protocol: (§3) To induce ATP catabolism, the growth medium was replaced by medium containing micromolar amounts of the calcium ionophore A23187 and 1.0 μM deoxycoformycin.

[6] = tested on: HPRT- neuroblastoma cells; assay: Adenosine excretion by stimulated HPRT- neuroblastoma cells (calcium ionophore A23187); type: cell-based; conditions: for correction of lowered adenosine secretion of cells deficient in hypoxanthine phosphoribosyl transferase: pretreatment
Protocol: as §3

ischemic myocardium [7] = tested on: ischemic myocardium
Protocol: Regional myocardial blood flow was measured using radiolabelled microspheres infused into the left atrium at 5 minutes (open) and 60 minutes (hatched) of occlusion. The means plus the standard deviations are graphed. The asterisks (*) identify differences from saline-treated dogs that are significant at p<0.01.
Thirteen mongrel dogs were anesthetized with phenobarbital. The anterior coronary vein was cannulated and a blood sample was collected into 2N perchloric acid. […] Regional myocardial blood flow was measured within 15 μm radiolabelled spheres infused into the left atrium at 5 and 60 minutes during the ischemic period, as described by Heymann et al. in Prog. […] The electrocardiogram and arterial pressure were monitored throughout the period of ischemia.

[8] = tested on: Mouse bone marrow-derived mast cells; assay: Mast cell beta-hexosaminidase release (degranulation); type: cell-based
Protocol: as §2
β-hexosaminidase was chosen as a representative granule-associated, preformed mast cell mediator because it is easily quantitated, and its release nearly identically parallels that of histamine. Mouse bone marrow-derived mast cells were centrifuged at 200×g for 5 minutes, washed three times in Tyrode's buffer lacking divalent cations, sensitized for 30 minutes at 37° C. with anti-DNP (dinitrophenyl phosphate) IgE (1 μg/10^6 cells), and challenged with either DNP-BSA antigen ([…]/3×10^5 cells) or A23187 (10 μg/ml/3×10^5 cells) in 400 μl of complete Tyrode's buffer for 10 minutes at 37° C. Reaction mixtures were centrifuged at 200×g for 10 minutes, and supernatant and pellet β-hexasaminidase concentrations were assayed by the hydrolysis of p-nitrophenyl-β-D-glucosamide as described in Schwartz et al. in J. Immunol. […] Spontaneous β-hexosaminidase release was determined in unchallenged cells. The net % of β-hexosaminidase released is defined as follows: [formula] where [β-hex] is βhexosaminidase and super, is supernatant. When exogenous adenosine was present in reaction mixtures, it was added simultaneously with the secretagogue.

[9] = tested on: patients with adenylosuccinase deficiency (autism); assay: Therapeutic trial in patients with adenylosuccinase deficiency (autism); type: in vivo, human
From the text: Following authorization, therapeutic trials with AICA riboside were started in two patients with adenylosuccinase deficiency (autism). […] On Day 55, both patients were briefly readmitted for clinical, biochemical and psychiatric evaluation. […] Treatment was maintained until Day 71, and arrested at that date.

ischemic myocardium [10] = assay: Coronary venous adenosine during coronary artery occlusion in dogs; type: in vivo, dog
Protocol: FIG. 3. […] Coronary venous blood was collected into chilled 2N perchloric acid at various times before and after coronary artery occlusion. Supernatants from these extracts were neutralized with alamine and freon and evaluated by high performance liquid chromotography.
as §1

[11] = tested on: ischemia-induced arrhythmias; assay: Arrhythmias during myocardial ischemia in dogs (electrocardiogram); type: in vivo, dog; conditions: individual treated dogs 1-6
Protocol: as §1
One consequence of myocardial ischemia is arrhythmia and the frequency of arrhythmias is related to the degree of reduced blood flow. […] Electrocardiograms recorded during ischemia of Example III were analyzed for the number of premature ventricular depolarizations (PVD) and ventricular tachycardia (VTAC) episodes.

[12] = three-hour preincubation and four-hour incubation during 2-deoxyglucose treatment

**Q.** `NC(=O)c1ncn([C@@H]2O[C@H](COP(=O)(O)O)[C@@H](O)[C@H]2O)c1N` [AICA ribotide] was tested. Which AMP deaminase inhibited (AMP deaminase) did it give?
**A.** Its AMP deaminase inhibited is 38%.

**Q.** `NC(=O)c1ncn([C@@H]2O[C@H](CO)[C@@H](O)[C@H]2O)c1N` [AICA riboside, 5-amino-4-imidazolecarboxamide riboside] was tested. Which “inosine levels in venous blood” value (ischemic myocardium [1]) did it give?
**A.** Its value is “more than twofold decrease”.

**Q.** And the “supernatant leukotriene C4 concentration” value [2]?
**A.** Its value is 13 nanograms/106 cells.

**Q.** What about the latency to seizure [3] of the same compound?
**A.** Its latency to seizure is “dramatic prolongation”.

**Q.** What about the “adenosine release from lymphoblasts” value ([4]; 48-hour pretreatment, 100-500 micromolar) of the same compound?
**A.** Its value is “enhances adenosine release”.

**Q.** What about the “adenosine release from lymphoblasts” value ([4]; 18 hours preincubation before 2-deoxyglucose exposure) of the same compound?
**A.** Its value is “enhanced adenosine release”.

**Q.** What about the “adenosine release from lymphoblasts” value [4, 12] of the same compound?
**A.** The value was “increased adenosine release”.

**Q.** What about the “adenosine secreted by treated cells versus control cells” value ([5]; 50 μM AICA riboside, A23187 and 1.0 μM deoxycoformycin) of the same compound?
**A.** Its value is “at least twofold more adenosine”.

**Q.** What about the “Concentration of Adenosine” value ([5]; HPRT+ cells, ionophore 0 μg/ml, AICA riboside 50 μM) of the same compound?
**A.** Its value is < 0.01 µM.

**Q.** What about the “Concentration of Adenosine” value ([6]; HPRT- cells, ionophore 0 μg/ml, AICA riboside 50 μM) of the same compound?
**A.** The value was < 0.01 µM.

**Q.** And the “correction of lowered adenosine secretion of cells deficient in hypoxanthine phosphoribosyl transferase” value [6]?
**A.** The value was “can be corrected”.

**Q.** What about the “systemic arterial pressure and heart rate versus saline” value (ischemic myocardium [7]; dog, in vivo) of the same compound?
**A.** Its value is “no significant differences”.

**Q.** And the “flow to normal myocardium” value (ischemic myocardium [7]; non-ischemic tissue)?
**A.** Its value is “did not alter flow”.

**Q.** What about the β-hexosaminidase released ([8]; 100 micromolar, A23187 1 μg/ml, 28.8% in its absence) of the same compound?
**A.** Its β-hexosaminidase released is 17.6%.

**Q.** And the “AICA riboside in plasma and CSF” value ([9]; all dosages used)?
**A.** The value was “could not be detected”.

**Q.** And the “haematology and clinical chemistry parameters” value ([9]; before and during the trial treatment)?
**A.** The value was “found normal”.

**Q.** And the “AICA riboside in plasma” value ([9]; one hour after intravenous administration, 20 mg/kg/day)?
**A.** The value was “undetectable”.

**Q.** And the “concentration of ATP and GTP in the erythrocytes” value ([9]; patients)?
**A.** The value was “did not influence significantly”.

**Q.** What about the “urinary output of succinyladenosine, SAICA riboside and uric acid” value ([9]; patients) of the same compound?
**A.** Its value is “without significant effect”.

**Q.** What about the “peak coronary venous adenosine level” value (ischemic myocardium [10]; at 1 minute of ischemia, saline peak 0.22 ±0.08 at 10 minutes) of the same compound?
**A.** Its value is 1.79 ± 0.35 µM.

**Q.** What about the “coronary venous adenosine level” value (ischemic myocardium [10]; at 60 minutes of ischemia, saline undetectable, in µM) of the same compound?
**A.** Its value is 0.18±0.15.

**Q.** And the “adenosine washout on reperfusion” value (ischemic myocardium [10]; reperfusion)?
**A.** Its value is “significant rise”.

**Q.** What about the “adenosine in blood from the right atrium (systemic blood)” value (ischemic myocardium [10]; systemic sampling) of the same compound?
**A.** The value was “no detectable adenosine”.

**Q.** And the “PVD, individual dogs” value [11]?
**A.** Its value is 12 EPISODES/H and 10 EPISODES/H and 4 EPISODES/H and 13 EPISODES/H and 6 EPISODES/H.

**Q.** What about the “VTAC, individual dogs” value [11] of the same compound?
**A.** Its value is 1 EPISODES/H and 0 EPISODES/H and 27 EPISODES/H.

**Q.** What does the source list for `NC(=O)c1ncn([C@@H]2O[C@H](CO)[C@@H](O)[C@H]2O)n1` [ribavirin, 1-β-D-ribofuranosyl-1H-1,2,4-triazole-3-carboxamide, reference compound]?
**A.** adenosine release from lymphoblasts [4, 12]: Increased in vitro adenosine release; adenosine release from lymphoblasts ([4]; three-hour preincubation and four-hour incubation during 2-deoxyglucose treatment, listed as ribivirin): increased adenosine release; correction of lowered adenosine secretion of cells deficient in hypoxanthine phosphoribosyl transferase [6]: can be corrected; mediator release ([8]; 1 μM for six days): inhibits mediator release significantly; net β-hexosaminidase release versus controls ([8]; 1, 10, or 2 μm for six days, challenged with A23187): released significantly less; β-hexosaminidase release compared to cells cultured in media alone ([8]; three to seven days in 10 μM, washed, challenged with A23187, p<0.05): marked attenuation

**Q.** How did the AMP deaminase inhibited (AMP deaminase) turn out when `NC(=O)c1ncn([C@@H]2O[C@H](COP(=O)(O)O)[C@@H](O)[C@H]2O)n1` [ribavirin monophosphate] was run?
**A.** The AMP deaminase inhibited was 54%.
